Experimental data as given in ChEMBL document CHEMBL1141814, “Chiral dihydroxylation of acronycine: absolute configuration of natural cis-1,2-dihydroxy-1,2-dihydroacronycine and cytotoxicity of (1R,2R)- and (1S,2S)-1,2-diacetoxy-1,2-dihydroacronycine” (J Nat Prod, 1999).

Test system: L1210
Assay: Cytotoxicity against mouse L1210 cells after 48 hrs by […] assay
Assay type: functional, cell-based
Details: L1210, 48 h

| SMILES | IC50 [µM] |
| --- | --- |
| COc1cc2c(c3c1c(=O)c1ccccc1n3C)[C@@H](OC(C)=O)[C@@H](OC(C)=O)C(C)(C)O2 | 3.1 |
| COc1cc2c(c3c1c(=O)c1ccccc1n3C)[C@H](OC(C)=O)[C@H](OC(C)=O)C(C)(C)O2 | 3.7 |
| COc1cc2c(c3c1c(=O)c1ccccc1n3C)C=CC(C)(C)O2 [ACRONINE] | 10.4 |
